Converted amounts (≈) assume the structure as drawn.
Legend:
[1] = target: T1, Nuclear receptor ROR-gamma (Homo sapiens, UniProt P51449); assay: Inverse agonist activity at recombinant human GST-tagged ROR-gamma receptor ligand binding domain assessed as inhibition of receptor and co-activator TRAP220 interaction by FRET assay
T1 sequence (P51449 whole entry): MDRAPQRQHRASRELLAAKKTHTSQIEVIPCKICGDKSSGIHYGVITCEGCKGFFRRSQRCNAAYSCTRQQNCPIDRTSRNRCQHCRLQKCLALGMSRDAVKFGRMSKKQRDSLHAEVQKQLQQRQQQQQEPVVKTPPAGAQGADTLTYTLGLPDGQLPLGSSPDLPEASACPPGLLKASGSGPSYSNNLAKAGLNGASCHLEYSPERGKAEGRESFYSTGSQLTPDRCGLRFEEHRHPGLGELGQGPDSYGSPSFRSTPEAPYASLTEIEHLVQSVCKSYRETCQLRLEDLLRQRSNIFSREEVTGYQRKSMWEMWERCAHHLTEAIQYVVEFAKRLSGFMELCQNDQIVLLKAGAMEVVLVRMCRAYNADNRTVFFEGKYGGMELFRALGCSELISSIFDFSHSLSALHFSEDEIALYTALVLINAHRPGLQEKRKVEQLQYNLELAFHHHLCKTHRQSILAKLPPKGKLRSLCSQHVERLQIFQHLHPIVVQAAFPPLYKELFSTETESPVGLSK

[2] = target: T2, Nuclear receptor ROR-alpha (Homo sapiens, UniProt P35398); assay: Inverse agonist activity at human ROR-alpha transfected in HEK293T cells by Gal4 luciferase reporter gene assay; type: cell-based, HEK-293T
T2 sequence (P35398 whole entry): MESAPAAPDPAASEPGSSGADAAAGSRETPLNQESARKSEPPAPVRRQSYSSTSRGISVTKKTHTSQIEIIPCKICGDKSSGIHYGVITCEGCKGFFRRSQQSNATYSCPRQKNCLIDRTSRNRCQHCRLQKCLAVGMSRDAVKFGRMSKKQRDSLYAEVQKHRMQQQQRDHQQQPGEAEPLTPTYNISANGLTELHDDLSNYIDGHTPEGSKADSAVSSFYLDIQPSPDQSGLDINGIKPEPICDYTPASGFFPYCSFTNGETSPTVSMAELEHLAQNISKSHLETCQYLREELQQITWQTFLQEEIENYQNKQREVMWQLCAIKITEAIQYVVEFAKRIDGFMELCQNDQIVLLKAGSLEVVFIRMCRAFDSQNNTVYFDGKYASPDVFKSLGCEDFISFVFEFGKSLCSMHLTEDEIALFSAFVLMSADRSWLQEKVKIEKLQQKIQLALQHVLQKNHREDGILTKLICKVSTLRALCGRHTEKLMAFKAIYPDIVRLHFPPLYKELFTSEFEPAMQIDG

[3] = Aqueous solubility of compound at pH 6.8; type: physicochemical
[4] = target: T3, Nuclear receptor ROR-beta (Homo sapiens, UniProt Q92753); assay: Inverse agonist activity at human ROR-beta transfected in HEK293T cells by Gal4 luciferase reporter gene assay; type: cell-based, HEK-293T
T3 sequence (Q92753 whole entry): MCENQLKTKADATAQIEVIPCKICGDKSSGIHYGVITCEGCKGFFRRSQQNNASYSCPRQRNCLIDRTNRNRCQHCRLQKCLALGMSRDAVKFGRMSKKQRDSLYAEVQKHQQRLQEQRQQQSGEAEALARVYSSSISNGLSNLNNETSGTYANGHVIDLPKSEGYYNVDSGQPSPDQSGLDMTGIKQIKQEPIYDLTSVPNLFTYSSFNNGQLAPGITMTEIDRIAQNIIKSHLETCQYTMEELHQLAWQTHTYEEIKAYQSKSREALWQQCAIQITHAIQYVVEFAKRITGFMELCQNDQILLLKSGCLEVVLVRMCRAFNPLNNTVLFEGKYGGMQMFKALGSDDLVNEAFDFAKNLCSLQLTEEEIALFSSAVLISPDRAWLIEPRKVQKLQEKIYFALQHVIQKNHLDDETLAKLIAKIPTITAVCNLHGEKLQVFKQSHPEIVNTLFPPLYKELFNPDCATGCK

[5] = target: T4, Bile acid receptor (Homo sapiens) (UniProt Q96RI1); assay: Agonist activity at FXR (unknown origin) at 10 uM
T4 sequence (whole entry): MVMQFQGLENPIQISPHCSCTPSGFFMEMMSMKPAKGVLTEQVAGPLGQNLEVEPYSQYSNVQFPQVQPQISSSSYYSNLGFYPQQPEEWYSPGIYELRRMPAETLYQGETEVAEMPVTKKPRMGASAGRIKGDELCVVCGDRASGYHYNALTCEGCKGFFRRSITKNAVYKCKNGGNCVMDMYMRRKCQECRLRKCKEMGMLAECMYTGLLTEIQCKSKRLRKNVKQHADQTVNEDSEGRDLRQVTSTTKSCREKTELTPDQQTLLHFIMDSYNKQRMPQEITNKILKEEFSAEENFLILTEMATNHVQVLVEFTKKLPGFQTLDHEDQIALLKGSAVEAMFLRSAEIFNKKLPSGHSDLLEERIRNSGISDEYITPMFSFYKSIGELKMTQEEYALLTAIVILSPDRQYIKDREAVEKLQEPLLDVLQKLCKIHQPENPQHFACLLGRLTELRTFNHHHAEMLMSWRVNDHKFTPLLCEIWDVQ

[6] = target: Liver X receptor (Homo sapiens) (UniProt Q13133+P55055); assay: Agonist activity at LXR (unknown origin) at 10 uM; type: protein assay
[7] = target: T5, Nuclear receptor subfamily 1 group I member 2 (Homo sapiens, UniProt O75469); assay: Agonist activity at PXR (unknown origin) at 10 uM
T5 sequence (O75469 whole entry): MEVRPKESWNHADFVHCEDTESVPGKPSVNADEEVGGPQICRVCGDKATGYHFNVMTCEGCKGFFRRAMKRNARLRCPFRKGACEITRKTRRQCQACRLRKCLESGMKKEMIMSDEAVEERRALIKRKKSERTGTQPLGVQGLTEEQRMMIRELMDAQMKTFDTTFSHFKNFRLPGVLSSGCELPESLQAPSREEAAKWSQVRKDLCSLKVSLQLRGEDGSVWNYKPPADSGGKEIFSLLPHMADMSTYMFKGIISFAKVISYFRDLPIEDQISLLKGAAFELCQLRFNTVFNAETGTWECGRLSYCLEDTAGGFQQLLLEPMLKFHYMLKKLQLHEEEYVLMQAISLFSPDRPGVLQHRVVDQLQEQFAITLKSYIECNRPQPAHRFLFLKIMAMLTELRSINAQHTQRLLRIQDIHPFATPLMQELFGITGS

Cytochrome P450 3A4 = Cytochrome P450 3A4 (Homo sapiens, UniProt P08684); assay: Inhibition of CYP3A4 (unknown origin); type: ADME
Cytochrome P450 3A4, sequence (P08684 whole entry): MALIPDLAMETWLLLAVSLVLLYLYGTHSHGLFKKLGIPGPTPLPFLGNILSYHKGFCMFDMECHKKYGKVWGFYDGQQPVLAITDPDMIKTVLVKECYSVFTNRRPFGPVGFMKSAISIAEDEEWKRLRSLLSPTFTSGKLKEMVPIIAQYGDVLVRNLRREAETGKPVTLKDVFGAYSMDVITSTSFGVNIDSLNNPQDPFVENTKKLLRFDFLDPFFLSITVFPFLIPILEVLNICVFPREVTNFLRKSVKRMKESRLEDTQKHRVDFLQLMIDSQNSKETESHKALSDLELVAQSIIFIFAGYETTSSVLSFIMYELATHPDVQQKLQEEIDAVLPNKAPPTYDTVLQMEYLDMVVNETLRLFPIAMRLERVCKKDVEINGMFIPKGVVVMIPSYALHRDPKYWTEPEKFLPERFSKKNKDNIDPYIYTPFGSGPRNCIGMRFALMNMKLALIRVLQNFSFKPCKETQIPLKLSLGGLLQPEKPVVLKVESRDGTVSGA

[8] = target: T5, Nuclear receptor subfamily 1 group I member 2; assay: Agonist activity at PXR (unknown origin)

| Structure (SMILES) | IC50 [1] | also measured |
| --- | --- | --- |
| CNC(=O)c1cccc(-c2ccc(N(CC(F)(F)F)S(=O)(=O)c3cccc(Cl)c3)cc2)c1 | > 10 µM | – |
| Cn1ccc2c(S(=O)(=O)N(CC(F)(F)F)c3ccc4c(c3)CCCN4C(=O)c3cccs3)cccc21 | 0.056 µM | – |
| Cc1cc(C2(C(=O)O)CC2)ccc1-c1ccc(N(CC(F)(F)F)S(=O)(=O)c2cccc3c2ccn3C)cc1 | 0.91 µM | – |
| NC(=O)c1cccc(-c2ccc(N(CC(F)(F)F)S(=O)(=O)c3cccc(Cl)c3)cc2)c1 | 3.8 µM | – |
| CNC(=O)c1ccc(F)c(-c2ccc(N(CC(F)(F)F)S(=O)(=O)c3cccc(Cl)c3)cc2)c1 | 7.8 µM | – |
| Cc1cc2nccn2cc1-c1ccc(N(CC(F)(F)F)S(=O)(=O)c2cccc(Cl)c2)cc1 | 0.52 µM | – |
| Cc1cc(O)ccc1-c1ccc(N(CC(F)(F)F)S(=O)(=O)c2cccc3c2ccn3C)cc1 | 0.21 µM | – |
| Cn1ccc2c(S(=O)(=O)N(CC(F)(F)F)c3ccc(-c4cccc(C(N)=O)c4)cc3)cccc21 | 1.5 µM | – |
| CNS(=O)(=O)c1cccc(-c2ccc3c(c2)CCCN3C(=O)c2c(F)cccc2Cl)c1 | 6.4 µM | – |
| Cc1ccc(S(=O)(=O)Nc2ccc3c(c2)CCCN3C(=O)c2cccs2)cc1C | 1.47 µM | – |
| NS(=O)(=O)c1cccc(-c2ccc3c(c2)CCCN3C(=O)c2c(F)cccc2Cl)c1 | 10 µM | – |
| O=C(c1ccc(F)c(-c2ccc3c(c2)CCCN3C(=O)c2c(F)cccc2Cl)c1)N1CCCC1 | 1.9 µM | – |
| NC(=O)c1ccccc1-c1ccc2c(c1)CCCN2C(=O)c1c(F)cccc1Cl | > 10 µM | – |
| Cc1cc(CO)ccc1-c1ccc(N(CC(F)(F)F)S(=O)(=O)c2cccc3c2ccn3C)cc1 | 0.63 µM | – |
| NC(=O)c1ccc(Cl)c(-c2ccc(N(CC(F)(F)F)S(=O)(=O)c3cccc(Cl)c3)cc2)c1 | 4.2 µM | – |
| Cc1ccc(S(=O)(=O)N(CC(F)(F)F)c2ccc3c(c2)CCCN3C(=O)c2cccs2)cc1C | 0.2 µM | – |
| CNC(=O)c1cccc(-c2ccc(N(CC(F)(F)F)S(=O)(=O)c3cccc4c3ccn4C)cc2)c1 | 3.2 µM | – |
| NC(=O)c1ccc(Cl)c(-c2ccc3c(c2)CCCN3C(=O)c2c(F)cccc2Cl)c1 | – | EC50 [2]: 0.39 µM; solubility ([3]; aqueous, read-out: solubility): 0.04 µg/mL (≈ 0.0902 µM); EC50 [4]: 1.1 µM |
| Cc1cc(O)ccc1-c1ccc(N(CC(F)(F)F)S(=O)(=O)c2cccc(Cl)c2)cc1 | 0.52 µM | – |
| O=S(=O)(c1cccc(Cl)c1)N(CC(F)(F)F)c1ccc(C(O)(C(F)(F)F)C(F)(F)F)cc1 | 0.072 µM | Activity [5]: 100%; Activity [6]: 100%; Activity [7]: 100%; solubility ([3]; aqueous, read-out: solubility): < 0.5 µg/mL |
| O=C(c1cc(F)cc(-c2ccc3c(c2)CCCN3C(=O)c2c(F)cccc2Cl)c1)N1CCOCC1 | 8.1 µM | – |
| Cc1cc(C2(C(=O)O)CC2)ccc1-c1ccc(N(CC(F)(F)F)S(=O)(=O)c2cccc(Cl)c2)cc1 | > 10 µM | – |
| Cc1ccc(S(=O)(=O)N(CC(F)(F)F)c2ccc3c(c2)CCCN3C(=O)c2c(F)cccc2Cl)cc1C | 0.01 µM | inhibition (INH) (Cytochrome P450 3A4): Active; Activity [8]: Active; solubility ([3]; buffer): Insoluble |
| Cc1cc(CO)ccc1-c1ccc(N(CC(F)(F)F)S(=O)(=O)c2cccc(Cl)c2)cc1 | 6.5 µM | – |
| CNC(=O)c1ccc(F)c(-c2ccc(N(CC(F)(F)F)S(=O)(=O)c3cccc4c3ccn4C)cc2)c1 | 4.7 µM | – |
| Cc1cc2nccn2cc1-c1ccc(N(CC(F)(F)F)S(=O)(=O)c2cccc3c2ccn3C)cc1 | 2.8 µM | – |
| Cn1ccc2c(S(=O)(=O)N(CC(F)(F)F)c3ccc(C(O)(C(F)(F)F)C(F)(F)F)cc3)cccc21 | 0.072 µM | Activity [5]: 100%; Activity [6]: 100%; Activity [7]: 100%; solubility ([3]; aqueous, read-out: solubility): < 0.5 µg/mL |

— ChEMBL document CHEMBL3792338, “Discovery of biaryls as RORγ inverse agonists by using structure-based design” (Bioorg Med Chem Lett, 2016)
